The values that follow come from US20240368104A1, “Novel Dialkoxynaphtho[2,3-C]Furan-1(3H)-One Derivatives and Pharmaceutical Composition For Preventing or Treating Respiratory Disease or SARS-COV-2 Infection Disease, Comprising Same” (priority 2021, published 2024).

pIC50: −log10 of the molar value. Where two headings read alike, the source gives them in different places.

The test system of one data set is SARS-COV-2. The data set is described as follows: microbe, parasite or virus in culture. Type of data set: cell-based. Set-up: SI (Selectivity Index, CC50/IC50): unit not given here. The following applies: for SI (Selectivity Index, CC50/IC50): SARS-COV-2, values >50 assumed to be 50; for pIC50: read-out: SARS-COV-2 inhibition (IC50).
Another data set in a line: in vitro. To be noted: African green monkey.
Setting [1] is: Severe acute respiratory syndrome coronavirus 2, Vero, 24 h.
Where [2] appears, read: Severe acute respiratory syndrome coronavirus 2, Vero cells, 24 hours infection.

As usually defined, the pIC50 is −log10 of the IC50, conventionally taken in molar units. For `COc1cc2cc3c(c(-c4cnc(N5CCC[C@H]5CO)nc4)c2cc1OC)C(=O)OC3.Cl` [Example 83, (S)-9-(2-(2-(hydroxymethyl)pyrrolidin-1-yl)pyrimidin-5-yl)-6,7-dimethoxynaphtho[2,3-c]furan-1(3H)-one hydrochloride], the “SI (Selectivity Index, CC50/IC50)” value with SARS-COV-2 was 1.65. The pIC50 in the data set with SARS-COV-2 (setting [1]) was 4.52. The CC50 in the data set “in vitro” was > 50 µM.
Regarding `CCN(c1ccc(-c2c3c(cc4cc(OC)c(OC)cc24)COC3=O)cn1)C(C)C` [Example 182, 9-(6-(ethyl(isopropyl)amino)pyridin-3-yl)-6,7-dimethoxynaphtho[2,3-c]furan-1(3H)-one], in the data set with SARS-COV-2, the “SI (Selectivity Index, CC50/IC50)” value came out at 75.67. Moreover, the pIC50 in the data set on SARS-COV-2 (setting [2]) is 6.18. In “in vitro”, the CC50 is > 50 µM.
In the same order, the values of `COc1cc2cc3c(c(-c4ccc(N5CCSCC5)nc4)c2cc1OC)C(=O)OC3` [Example 10, 6,7-dimethoxy-9-(6-thiomorpholinopyridin-3-yl)naphtho[2,3-c]furan-1(3H)-one] are 91.58, 6.26 and > 50 µM.
On to `COc1cc2c(OC)c3c(c(-c4ccc5c(c4)OCO5)c2cc1OC)COC3=O` [Example 262, 4-(benzo[d][1,3]dioxol-5-yl)-6,7,9-trimethoxynaphtho[2,3-c]furan-1(3H)-one], for which the “SI (Selectivity Index, CC50/IC50)” value in the data set with SARS-COV-2 came to 5.40. Besides, the pIC50 in the data set on SARS-COV-2 (setting [1]) was 5.03. Further, the CC50 in “in vitro” was > 50 µM.
On to `COc1cc2cc3c(c(-c4cc5c(cc4OC(=O)C(C)C)OCO5)c2cc1OC)C(=O)OC3` [Example 275, 6-(6,7-dimethoxy-3-oxo-1,3-dihydronaphtho[2,3-c]furan-4-yl)benzo[d][1,3]dioxol-5-yl isobutrate], for which the “SI (Selectivity Index, CC50/IC50)” value with SARS-COV-2 came out at 1.76. Further, in the data set on SARS-COV-2 (setting [2]), the negative logarithm of the IC50 (pIC50) was 4.55. In addition, in the data set “in vitro”, the CC50 is > 50 µM.
In the same order, the values of `COc1cc2cc3c(c(-c4cnc(N(C)CC5CC5)nc4)c2cc1OC)C(=O)OC3` [Example 68, 9-(2-((cyclopropylmethyl)(methyl)amino)pyrimidin-5-yl)-6,7-dimethoxynaphtho[2,3-c]furan-1(3H)-one] are 270.89, 6.74 and > 50 µM.
Turning to `COc1cc2cc3c(c(-c4cc5c(cc4OC(=O)c4ccncc4)OCO5)c2cc1OC)C(=O)OC3` [Example 271, 6-(6,7-dimethoxy-3-oxo-1,3-dihydronaphtho[2,3-c]furan-4-yl)benzo[d][1,3]dioxol-5-yl isonicoinate], the “SI (Selectivity Index, CC50/IC50)” value with SARS-COV-2 is 34.41. Besides, in the data set with SARS-COV-2 (setting [2]), the pIC50 is 5.84. Besides, the CC50 in “in vitro” is > 50 µM.
On to `COc1ccc2nc(C)cc(-c3c4c(cc5cc(OC)c(OC)cc35)COC4=O)c2c1` [Example 155, 6,7-dimethoxy-9-(6-methoxy-2-methylquinolin-4-yl)naphtho[2,3-c]furan-1(3H)-one], for which, in the data set on SARS-COV-2, the “SI (Selectivity Index, CC50/IC50)” value turned out to be 1.0. For the same molecule, the pIC50 in the data set with SARS-COV-2 (setting [2]) was < 4.30. The CC50 in the data set “in vitro” is > 50 µM.
In the same order, the values of `COc1cc2cc3c(c(-c4ccc5cc(C(F)(F)F)cc(O)c5c4)c2cc1OC)C(=O)OC3` [Example 153, 9-(8-hydroxy-6-(trifluoromethyl)naphthalen-2-yl)-6,7-dimethoxynaphtho[2,3-c]furan-1(3H)-one] are 1.0, < 4.30 and > 50 µM.
In the same order, the values of `COc1cc2cc3c(c(-c4ccc(N5C[C@@H](C)O[C@@H](C)C5)nc4)c2cc1OC)C(=O)OC3` [Example 121, 9-(6-((2S,6R)-2,6-dimethylmorpholino)pyridin-3-yl)-6,7-dimethoxynaphtho[2,3-c]furan-1(3H)-one] are 21.51, 5.63 and > 50 µM.
Turning to `COc1cc2cc3c(c(-c4cc5c(cc4OP(=O)(NC(C)C)c4ccccc4)OCO5)c2cc1OC)C(=O)OC3` (stereo not drawn) [Example 281, 6-(6,7-dimethoxy-3-oxo-1,3-dihydronaphtho[2,3-c]furan-4-yl)benzo[d][1,3]dioxol-5-yl N-isopropyl-P-phenylphosphoramidate], the “SI (Selectivity Index, CC50/IC50)” value in the data set on SARS-COV-2 was found to be 3.45. The pIC50 in the data set with SARS-COV-2 (setting [1]) was 4.84. For the same molecule, the CC50 in the data set “in vitro” was > 50 µM.
In the same order, the values of `COc1cc2cc3c(c(-c4ccc(N(C)C)cc4)c2cc1OC)C(=O)OC3.Cl` [Example 247, 9-(4-(dimethylamino)phenyl)-6,7-dimethoxynaphtho[2,3-c]furan-1(3H)-one] are 344.5, 6.82 and > 50 µM.
As for `COc1cc2cc3c(c(-c4ccc(N5CCCCC5)nc4)c2cc1OC)C(=O)OC3` [Example 123, 6,7-dimethoxy-9-(6-(piperidin-1-yl)pyridin-3-yl)naphtho[2,3-c]furan-1(3H)-one], in the data set with SARS-COV-2, the “SI (Selectivity Index, CC50/IC50)” value was 145.26. In addition, the pIC50 with SARS-COV-2 (setting [2]) was 6.47. The CC50 in the data set “in vitro” was > 50 µM.
The matching figures for `COc1cc2cc3c(c(-c4ccc(N(C)c5nnc(C)o5)nc4)c2cc1OC)C(=O)OC3` [Example 231, 6,7-dimethoxy-9-(6-(methyl(5-methyl-1,3,4-oxadiazol-2-yl)amino)pyridin-3-yl)naphtho[2,3-c]furan-1(3H)-one]: 1.00, < 4.30 and > 50 µM.
Consider `COc1cc2cc3c(c(-c4cnc(N(CCO)CCO)nc4)c2cc1OC)C(=O)OC3.Cl` [Example 85, 9-(2-(bis(2-hydroxyethyl)amino)pyrimidin-5-yl)-6,7-dimethoxynaphtho[2,3-c]furan-1(3H)-one hydrochloride], for which the “SI (Selectivity Index, CC50/IC50)” value in the data set on SARS-COV-2 was 1.00. In addition, in the data set on SARS-COV-2 (setting [1]), the pIC50 is < 4.30. Further, the CC50 in the data set “in vitro” was > 50 µM.
In the case of `COc1cc2cc3c(c(-c4ccc5cccnc5c4)c2cc1OC)C(=O)OC3` [Example 118, 6,7-dimethoxy-9-(quinolin-7-yl)naphtho[2,3-c]furan-1(3H)-one], the “SI (Selectivity Index, CC50/IC50)” value with SARS-COV-2 was found to be 257.92. In addition, the pIC50 with SARS-COV-2 (setting [2]) was 6.72. Moreover, the CC50 in the data set “in vitro” was > 50 µM.
In the same order, the values of `COc1cc2cc3c(c(-c4cnc(NCC5CC5)nc4)c2cc1OC)C(=O)OC3` [Example 67, 9-(2-((cyclopropylmethyl)amino)pyrimidin-5-yl)-6,7-dimethoxynaphtho[2,3-c]furan-1(3H)-one] are 2.72, 4.74 and > 50 µM.
In the same order, the values of `COCCN(C)C(=O)[C@@H]1CCCN1c1ncc(-c2c3c(cc4cc(OC)c(OC)cc24)COC3=O)cn1` [Example 33, (S)-1-(5-(6,7-dimethoxy-3-oxo-1,3-dihydronaphtho[2,3-c]furan-4-yl)pyrimidin-2-yl)-N-(2-methoxyethyl)-N-methylpyrrolidin-2-carboxamide] are 1.00, < 4.30 and > 50 µM.
Consider `CCN(c1ncc(-c2c3c(cc4cc(OC)c(OC)cc24)COC3=O)cn1)C1CCCCC1.Cl` [Example 78, 9-(2-(cyclohexyl(ethyl)amino)pyrimidin-5-yl)-6,7-dimethoxynaphtho[2,3-c]furan-1(3H)-one hydrochloride], for which, in the data set on SARS-COV-2, the “SI (Selectivity Index, CC50/IC50)” value was found to be 18.80. Besides, in the data set with SARS-COV-2 (setting [1]), the pIC50 is 5.58. For the same molecule, the CC50 in “in vitro” was > 50 µM.
